Experiments:
Experiment in all cases: relative viability (nuclei count vs DMSO), 5 days (fraction); higher = more cells survive
BAM7 + OSI-027 = compound: CCOC1=CC=CC=C1N=NC2=C(NN(C2=O)C3=NC(=CS3)C4=CC=CC=C4)C [BAM7] + COc1cccc2cc(-c3nc([C@H]4CC[C@H](C(=O)O)CC4)n4ncnc(N)c34)[nH]c12 [OSI-027] (partner 0.5 µM)
Method in brief: (§1)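 Five library-drug doses in √10 steps were combined with a fixed anchor-drug dose, or a single drug was given alone, by pin tool to lung cancer cell lines in 1536-well plates the day after seeding. Nuclei were stained and counted after 5 days. Relative viability is the nuclei count in treated wells over that in vehicle wells, taken as the median of duplicate plates.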

[1] = compound: CCn1c(-c2nonc2N)nc2c(C#CC(C)(C)O)ncc(OC[C@H]3CCCNC3)c21 + CCNC(=O)c1noc(-c2cc(C(C)C)c(O)cc2O)c1-c1ccc(CN2CCOCC2)cc1 [Luminespib] (partner 0.01 µM)
Method in brief: as §1

[2] = compound: CCn1c(-c2nonc2N)nc2c(C#CC(C)(C)O)ncc(OC[C@H]3CCCNC3)c21 + CS(=O)(=O)CCNCc1ccc(-c2ccc3ncnc(Nc4ccc(OCc5cccc(F)c5)c(Cl)c4)c3c2)o1 [Lapatinib] (partner 2 µM)
Method in brief: as §1

[3] = compound: CCn1c(-c2nonc2N)nc2c(C#CC(C)(C)O)ncc(OC[C@H]3CCCNC3)c21 + NC(=O)Nc1cc(-c2cccc(F)c2)sc1C(=O)N[C@H]1CCCNC1 [AZD7762] (partner 0.2 µM)
Method in brief: as §1

Cell Line	relative viability (BAM7 + OSI-027; first compound 0.5 µM)	relative viability (BAM7 + OSI-027; first compound 5 µM)	relative viability (BAM7 + OSI-027; first compound 15.81 µM)	relative viability (BAM7 + OSI-027; first compound 50 µM)	relative viability ([1]; first compound 0.01 µM)	relative viability ([1]; first compound 0.03162 µM)	relative viability ([1]; first compound 0.1 µM)	relative viability ([1]; first compound 0.3162 µM)	relative viability ([1]; first compound 1 µM)	relative viability ([2]; first compound 0.01 µM)	relative viability ([2]; first compound 0.03162 µM)	relative viability ([2]; first compound 0.1 µM)	relative viability ([2]; first compound 0.3162 µM)	relative viability ([2]; first compound 1 µM)	relative viability ([3]; first compound 0.01 µM)	relative viability ([3]; first compound 0.03162 µM)	relative viability ([3]; first compound 0.1 µM)	relative viability ([3]; first compound 0.3162 µM)	relative viability ([3]; first compound 1 µM)
NCI-H727	0.591	0.509	0.523	0.738	0.324	0.621	0.311	0.313	0.389	0.796	0.856	0.593	0.762	0.66	0.586	0.6	0.768	0.631	0.576
NCI-H838	0.365	0.435	0.405	0.379	0.309	0.308	0.296	0.227	0.304	1.11	1.13	1.1	0.853	0.968	0.957	1.02	0.988	0.855	0.9
NCI-H1355	0.441	0.374	0.385	0.395	0.716	0.688	0.746	0.695	0.693	1.03	0.944	0.998	0.926	1.02	0.768	0.762	0.827	0.625	0.743
NCI-H1395	0.684	0.67	0.704	0.97	0.78	0.705	0.546	0.596	0.695	0.815	0.842	0.858	0.769	0.869	0.379	0.329	0.433	0.368	0.389
NCI-H1437	1.19	0.985	0.883	0.972	1.07	1.13	1.21	1.09	1.17	0.841	0.821	0.877	0.719	0.795	1.03	1.17	1.18	1.08	0.953
NCI-H1651	0.657	0.758	0.7	0.653	0.969	0.875	0.811	0.755	0.953	0.816	0.854	0.798	0.715	0.842	0.401	0.472	0.454	0.447	0.337
NCI-H1666	0.899	0.786	0.875	0.929	0.948	0.933	1.05	0.959	1.04	0.552	0.487	0.469	0.521	0.508	0.806	0.827	0.839	0.804	0.876
NCI-H1734	0.606	0.657	0.602	0.647	0.189	0.194	0.177	0.145	0.219	1.01	1.02	0.896	0.885	0.825	0.66	0.581	0.452	0.548	0.504
NCI-H1755	0.81	0.698	0.689	0.719	0.455	0.519	0.556	0.513	0.423	1.03	1.02	1.03	0.993	1.07	0.501	0.418	0.382	0.406	0.425
NCI-H1792	0.694	0.71	0.553	0.624	0.593	–	0.566	0.416	0.47	0.897	0.859	0.862	0.757	0.871	0.761	1.01	0.794	0.612	0.602
NCI-H1793	0.271	0.267	0.25	0.233	0.24	0.237	0.212	0.189	0.233	0.75	0.699	0.577	0.548	0.939	0.45	0.716	–	0.412	0.411
NCI-H1915	0.687	0.674	0.6	0.625	0.713	0.898	0.741	0.755	0.724	0.981	0.889	0.956	0.927	0.973	0.699	0.698	0.672	0.648	0.607
NCI-H1944	0.39	0.439	0.434	0.445	0.7	0.786	0.76	0.751	0.733	0.767	0.825	0.751	0.773	0.819	0.682	0.47	0.596	0.513	0.654
NCI-H1975	0.496	0.525	0.465	0.532	0.214	0.166	0.199	0.247	0.304	0.828	0.975	0.927	0.799	0.728	0.663	0.694	0.811	0.695	0.641
NCI-H1993	0.537	0.538	0.553	0.568	0.84	0.728	0.739	0.645	0.686	0.957	0.781	0.947	0.704	0.872	0.836	0.954	0.923	0.738	0.725
NCI-H2085	0.733	0.571	0.52	0.678	0.417	0.382	0.492	0.42	0.463	0.8	0.7	0.601	0.574	0.573	0.966	0.982	1.01	0.954	1
NCI-H2087	0.818	0.552	0.441	0.559	0.128	0.154	0.165	0.152	0.163	0.965	0.999	0.899	1.07	1.03	1.31	–	1.13	1.35	1.42
